The record followed here is paper PMC6413125 (International Journal of Molecular Sciences, 2019).

What all share (format): biochemical
Assay [1] concerns the target T1, nucleophosmin 1 (NPM1_264–277) (Homo sapiens, UniProt P06748).
T1 construct: gene NPM1; helix H2 of C-terminal domain, residues 264–277 ([…])
Put plainly: ESI-MS adducts; IC50 from ThT aggregation assay; CD.

For another assay, the target named is T2, Aβ21–40 (Homo sapiens, UniProt P05067).
T2 construct: gene APP
Kind of assay: ESI-MS adducts ([…] and […]); IC50 from ThT aggregation assay.

In assay [2] the target is T3, Yeast Prion Protein Sup35p (Sup35p7–13) (Saccharomyces cerevisiae, UniProt P05453).
T3 construct: gene SUP35

T2 sequence (P05067 692-711): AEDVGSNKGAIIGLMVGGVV

Take `CSC1=[S+][Pt-2]([Cl])([S+](C)(C)=O)[O]C(c2cccc(O)c2)=C1` (stereo not drawn) [compound 1, 1]: the IC50 amounted to 62.3 ± 1.3 µM in assay [1], 19.9 ± 1.6 µM at Aβ21–40 and 55 ± 1.12 µM in assay [2].

As a reminder, the IC50 is the point on the concentration scale where inhibition reaches its midpoint. Read a high IC50 as a need for much substance.
